experiment: recombinant UMI read abundance after kanamycin selection (control-corrected) (log10(CPM+1)); higher = more efficient recombination; extreme values may be limits of the assay; sequences stand for … in AGTGCAGAGAAAATCGGCCAGTTTTCTCTGCCTGCAGTCCGCATGCCGTGGGACCCCTTGGGTTCTAACCTGTTGCCTAGATTTATGCAGCGGACTGCCTTTCTCCCAAAGTGATAAACCGG…AGGTTGGTTTCACT; site = the 11-nt donor
Summary of the method: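 Each donor and donor-binding-loop pair was tracked by a 12-nt UMI on a plasmid carrying a promoterless kanamycin gene. With a second plasmid supplying a fixed target and T7-inducible IS621 bridge recombinase, the pool was plated in Escherichia coli on IPTG (0.07 mM) plus kanamycin or unselected. Sequencing of recombinant UMIs across the donor–target junction gave counts expressed as log10(CPM+1) after replicate averaging and control-derived scaling.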
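Also: IS621 bridge recombinase in Escherichia coli cells against a fixed T5 target plasmid.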

Sequence	recombinant UMI read abundance (log10)
GTTCGAGCATGGACCGGTTTTCCCGGTAATCCGTATTTGCA (site GTTCAAGCTTG)	1.8
GTTCGAGCATGGACCGGTTTTCCCGGTAATCCGTATTTGCA (site GTTCCAGCTTG)	0.541
GTTCGAGCATGGACCGGTTTTCCCGGTAATCCGTATTTGCA (site GTTCGAACTTG)	0.806
GTTCGAGCATGGACCGGTTTTCCCGGTAATCCGTATTTGCA (site GTTCGACCTTG)	0.0101
GTTCGAGCATGGACCGGTTTTCCCGGTAATCCGTATTTGCA (site GTTCGAGCTAG)	0
GTTCGAGCATGGACCGGTTTTCCCGGTAATCCGTATTTGCA (site GTTCGAGCTCG)	0.461
GTTCGAGCATGGACCGGTTTTCCCGGTAATCCGTATTTGCA (site GTTCGAGCTGG)	0.789
GTTCGAGCATGGACCGGTTTTCCCGGTAATCCGTATTTGCA (site GTTCGAGCTTA)	1.19
GTTCGAGCATGGACCGGTTTTCCCGGTAATCCGTATTTGCA (site GTTCGAGCTTC)	0.0558
GTTCGAGCATGGACCGGTTTTCCCGGTAATCCGTATTTGCA (site GTTCGAGCTTG)	2.44
GTTCGAGCATGGACCGGTTTTCCCGGTAATCCGTATTTGCA (site GTTCGAGCTTT)	0.391
GTTCGAGCATGGACCGGTTTTCCCGGTAATCCGTATTTGCA (site GTTCGATCTTG)	1.09
GTTCGAGCATGGACCGGTTTTCCCGGTAATCCGTATTTGCA (site GTTCGCGCTTG)	0.00631
GTTCGAGCATGGACCGGTTTTCCCGGTAATCCGTATTTGCA (site GTTCGGGCTTG)	1
GTTCGAGCATGGACCGGTTTTCCCGGTAATCCGTATTTGCA (site GTTCGTGCTTG)	0.477
GTTCGAGCATGGACCGGTTTTCCCGGTAATCCGTATTTGCA (site GTTCTAGCTTG)	0.494
GTTCGAGCATGGACCGGTTTTCCCGGTAATCCGTATTTGCA (site GTTGGAGCTTG)	0.345
GTTCGAGCATGGACCGGTTTTCCCGGTAATCCGTATTTGCA (site GTTTGAGCTTG)	0.607
GTTCGAGCATGGACCGGTTTTCCCGGTAATCCGTATTTGCA (site TTTCGAGCTTG)	0.829

Sequence	recombinant UMI read abundance (log10)
GTTCGAGCATGGACCGGTTTTCCCGGTAATCCGTATTTGCC (site GTTCGAGCTAG)	0.379
GTTCGAGCATGGACCGGTTTTCCCGGTAATCCGTATTTGCC (site GTTCGAGCTCG)	0.00775
GTTCGAGCATGGACCGGTTTTCCCGGTAATCCGTATTTGCC (site GTTCGAGCTGG)	1.42
GTTCGAGCATGGACCGGTTTTCCCGGTAATCCGTATTTGCC (site GTTCGAGCTTG)	0.317
GTTCGAGCATGGACCGGTTTTCCCGGTAATCCGTATTTGGG (site GTTCGAGCTCC)	0.00765
GTTCGGCCATGGACCGGTTTTCCCGGTAATCCGTATTTGGT (site GTTCGGCCTAC)	0.00718
GTTCTATCATGGACCGGTTTTCCCGGTAATCCGTATTTGTG (site GTTCTATCTCA)	1.02
GTTCTCACATGGACCGGTTTTCCCGGTAATCCGTATTTGGT (site GTTCTCACTAC)	0.234
GTTGCGGCATGGACCGGTTTTCCCGGTAATCCGTATTTGCT (site ATTGCGGCTAG)	1.03
GTTGCGGCATGGACCGGTTTTCCCGGTAATCCGTATTTGCT (site CTTGCGGCTAG)	0.745
GTTGCGGCATGGACCGGTTTTCCCGGTAATCCGTATTTGCT (site GTTGCGGCTAG)	1.49
GTTGCGGCATGGACCGGTTTTCCCGGTAATCCGTATTTGCT (site TTTGCGGCTAG)	0.731
GTTGGAACATGGACCGGTTTTCCCGGTAATCCGTATTTGCC (site GTTGGAACTGG)	2.34
GTTGGAACATGGACCGGTTTTCCCGGTAATCCGTATTTGTT (site GTTGGAACTAA)	2
GTTGGTACATGGACCGGTTTTCCCGGTAATCCGTATTTGAC (site GTAGGTACTGT)	1.9
GTTGGTACATGGACCGGTTTTCCCGGTAATCCGTATTTGAC (site GTCGGTACTGT)	2.31
GTTGGTACATGGACCGGTTTTCCCGGTAATCCGTATTTGAC (site GTGGGTACTGT)	0
GTTGGTACATGGACCGGTTTTCCCGGTAATCCGTATTTGAC (site GTTGGTACTGT)	2.36
GTTGTTACATGGACCGGTTTTCCCGGTAATCCGTATTTGCA (site GTTGTTACTTG)	2.25

Sequence	recombinant UMI read abundance (log10)
GTTGTTGCATGGACCGGTTTTCCCGGTAATCCGTATTTGGT (site GTTGTTACTAC)	0.375
GTTGTTGCATGGACCGGTTTTCCCGGTAATCCGTATTTGGT (site GTTGTTCCTAC)	0.00209
GTTGTTGCATGGACCGGTTTTCCCGGTAATCCGTATTTGGT (site GTTGTTGCTAC)	1.83
GTTGTTGCATGGACCGGTTTTCCCGGTAATCCGTATTTGGT (site GTTGTTTCTAC)	0
GTTTAAGCATGGACCGGTTTTCCCGGTAATCCGTATTTGAC (site GTTTAAGCTGT)	2.24
GTTTAGGCATGGACCGGTTTTCCCGGTAATCCGTATTTGCA (site GTTTAGGCTTG)	2.03
GTTTAGTCATGGACCGGTTTTCCCGGTAATCCGTATTTGAT (site GTTTAGTCTAT)	1.59
GTTTCGACATGGACCGGTTTTCCCGGTAATCCGTATTTGTC (site GTTTCGACTGA)	0.157
GTTTGAGCATGGACCGGTTTTCCCGGTAATCCGTATTTGCA (site GTTAGAGCTTG)	1.32
GTTTGAGCATGGACCGGTTTTCCCGGTAATCCGTATTTGCA (site GTTCGAGCTTG)	1.89
GTTTGAGCATGGACCGGTTTTCCCGGTAATCCGTATTTGCA (site GTTGGAGCTTG)	1.55
GTTTGAGCATGGACCGGTTTTCCCGGTAATCCGTATTTGCA (site GTTTGAGCTTG)	2.07
GTTTGCACATGGACCGGTTTTCCCGGTAATCCGTATTTGTA (site GTATGCACTTA)	0.00807
GTTTGCACATGGACCGGTTTTCCCGGTAATCCGTATTTGTA (site GTCTGCACTTA)	0.253
GTTTGCACATGGACCGGTTTTCCCGGTAATCCGTATTTGTA (site GTGTGCACTTA)	0.0346
GTTTGCACATGGACCGGTTTTCCCGGTAATCCGTATTTGTA (site GTTTGCACTTA)	0.721
GTTTGGACATGGACCGGTTTTCCCGGTAATCCGTATTTGAC (site GATTGGACTGT)	0
GTTTGGACATGGACCGGTTTTCCCGGTAATCCGTATTTGAC (site GCTTGGACTGT)	1
GTTTGGACATGGACCGGTTTTCCCGGTAATCCGTATTTGAC (site GGTTGGACTGT)	0

Reference: the supplement of paper PMC11208160
